# Measurements published in US9649324B2, “Use of tylvalosin as antiviral agent” (ECO ANIMAL HEALTH LIMITED, priority 2006, dated 2017).
# Experiments:
# Caco-2 cells = test: Intracellular accumulation and trans-epithelial transport in polarised Caco-2 cells; assay type: in vitro ADME, human
# Description: Caco-2 cells were seeded at a density of 0.8×10^6 cells per well of a Transwell Clear filter 6 well plate, 0.4 μm pore size. The cells were incubated with 2 mL medium in both apical and basolateral chambers. This medium was replaced every 2 days for 10-14 days. Transepithelial resistance was measured using Millicell ERS apparatus (Millipore) at day 7, 10 and/or 14 in order to identify when the cells had become polarised. Readings of >1000 Ω were indicative of polarised cells. […]
# (§1) All the supernatant and cell samples were transported frozen (at approximately −20° C.) to York Bioanalytical Solutions (York, England) for analysis. Briefly, 0.25 g of buffer (RPMI medium containing 10% FCS) was weighed into a polypropylene tube. A 50 μL volume of the appropriate working solution was added to the quality control (QC) samples. Methanol (50 μL) was added to each blank sample used for preparation of calibration standards, recovery samples and reagent blanks. A 2.5 mL volume of 0.1 M phosphate buffer was added to each sample, vortex mixed for approximately 1 min and then centrifuged at 3220×g for 10 min at 4° C.
# (§2) For the liquid-liquid clean-up phase, an aliquot (100 μL) of the supernatant was transferred to a polypropylene tube. The pH was adjusted to pH 8-8.5 by the addition of 0.1 M NaOH, and vortex mixed. Ethyl acetate (5 mL) was added and after capping, the whole mixture was shaken for 10 min and then centrifuged at 3220×g for 10 min at 4° C.
# (§3) Ammonium acetate (20 mM; pH native)—formic acid, 1000:3, v/v (100 μL) was added to each well in a 2 mL polypropylene collection plate. An aliquot of the ethyl acetate mixture (100 μL) was transferred to the polypropylene collection plate and evaporated under nitrogen (40° C.) until the ethyl acetate was fully evaporated whilst the ammonium acetate remained. Methanol (100 μL) was added to each well, excluding the calibration standards.
# (§4) To each well containing a calibration standard, 100 μL of the appropriate calibration working solution was added. Samples were then vortex mixed for at least 10 min and submitted for liquid chromatography with tandem mass spectrometric analysis. The method stated was applicable to the samples of media (and the calibration standards and quality control samples).
# (§5) For the cells, the sample tubes were weighed, and 100 μL of acetonitrile was added. The samples were vortex mixed for 10 sec, then centrifuged at 10285×g at 4° C. for 5 min. The sample was transferred to a polypropylene tube. The original sample tube was washed with 0.1 M phosphate buffer (1 mL). This was transferred to the polypropylene tube. A second wash of 1 mL was made, then a final wash of 0.5 mL. The polypropylene tube was now at the same stage as the end of the liquid extraction, but with the cells present rather than media. This was then taken through the sample preparation as described above. The original sample tubes were allowed to dry (i.e. any remaining solvent evaporated off) and were then reweighed to determine the weight of cells in the sample, to allow the concentration per gram of cells to be determined.
# [1] = system: chicken white blood cells; test: Intracellular accumulation in chicken white blood cells; assay type: in vitro ADME; conditions: chicken white blood cells
# Description: Pig blood was collected in Heparin-coated BD vacutainers (6). 20 mL of blood and 30 mL of phosphate buffered saline (PBS) were mixed in a 50 mL conical centrifuge tube. This was repeated in order to obtain 3 such tubes. The mixtures were centrifuged for 10 min at 2050×g. The white blood cells, together with some red blood cells below, were harvested into a 50 mL conical centrifuge tube. PBS was added to about 50 mL. A 63% solution of Percoll was made as follows: 6.3 mL Percoll (Sigma), 1.0 mL 1.5 M NaCl, 2.7 mL H2O. 10 mL of 63% Percoll was added to each of two 50 mL conical centrifuge tubes. 25 mL of the resuspended white blood cells were carefully layered on top of the each of the Percoll solutions. A sharp interface was produced. The material was centrifuged at 3000×g for 10 min. […] The white blood cells were harvested in PBS (50 mL) and centrifuged at 500×g for 10 min. The cell pellet was resuspended in medium (Glasgow minimum essential medium containing penicillin and streptomycin). A viable cell count was made using trypan blue. The same method used for isolation of pig WBCs was used for the chicken WBCs, with the exception that heparin (100 I.U./mL) was prepared and mixed with an equal volume of chicken whole blood.
# All tubes were placed on a rotary mixing machine, at 37° C. Supernatant and cell samples were harvested at the times described in the figure legends. Duplicate samples were used for each antibiotic for each time point.
# as §1, §2, §3, §4
# as §5, with “The original sample tubes were allowed to dry (i.e. any remaining solvent evaporated off) and were then reweighed to determine the weight of cells in the sample, to allow the concentration per gram of cells to be determined.” left out
# PRRSV = PRRSV infection and cell spread in MA104 cells, drug added after infection (Example 5); assay type: cell-based; conditions: moi 0.01, 1 μg/ml added 8 hours post infection
# Description: MA104 cells were infected with PRRSV at moi of 0.01 (should infect roughly 10% of the cells in the first round). 8 hours post infection tylvalosin, tylosin and tilmicosin were added at 1 μg/ml. Cells were harvested 28 hours post infection and infection was assessed by indirect immunofluorescence.
# As stated above a moi of 0.01 should infect roughly 10% of the cells. However, after 28 hours the virus will have completed one round of infection and will have infected neighbouring cells. […] This detection increases 16-20 hours post infection and by 24 hours low levels of expression in neighbouring cells can be detected.
# The addition of drugs 8 hours post infection should have no effect on the primary infection (i.e. no effect on entry of input virus). It could, however, effect viral replication directly or indirectly through other mechanisms and could also effect virus entry during the secondary round of infection where virus produced by the initially infected cells infects neighbouring cells.
# [2] = Caco-2, 10 μg/mL, apical administration, 240 min
# [3] = Caco-2, 100 μg/mL, apical administration, 30 min
# [4] = Caco-2, 100 μg/mL, apical administration, 240 min
# [5] = Caco-2, 100 μg/mL, apical administration, between 60 min and 120 min
# [6] = Caco-2, 100 μg/mL, basolateral administration, 30 min
# [7] = Caco-2, 100 μg/mL, basolateral administration, 240 min
structure (smiles),measurement,setting,value
"CCC1OC(=O)CC(OC(C)=O)C(C)C(OC2OC(C)C(OC3CC(C)(O)C(OC(=O)CC(C)C)C(C)O3)C(N(C)C)C2O)C(CC=O)CC(C)C(=O)C=CC(C)=CC1COC1OC(C)C(O)C(OC)C1OC (stereo not shown) [tylvalosin, 3-O acetyl-4″-O-isovaleryltylosin]",average intracellular concentration,"Caco-2 cells; Caco-2, 10 μg/mL, apical administration, 120 min",42.2 μg/mg cells
same,average intracellular concentration,Caco-2 cells; [2],34.3 μg/mg cells
same,basolateral chamber content as average % of the apical chamber value,Caco-2 cells; [2],10.47%
same,intracellular:extracellular ratio (fold concentration),Caco-2 cells; [2],3.49 fold
same,average intracellular concentration,Caco-2 cells; [3],428 μg/mg cells
same,intracellular:extracellular ratio,Caco-2 cells; [3],4.64
same,intracellular concentration,Caco-2 cells; [4],375 μg/mg cells
same,intracellular:extracellular ratio,Caco-2 cells; [4],5.85
same,tylvalosin in opposite (basolateral) chamber compared to the administration chamber,Caco-2 cells; [4],19%
same,"intracellular:extracellular ratio (peak, average value)",Caco-2 cells; [5],10.23-15.58
same,maximum intracellular concentration,Caco-2 cells; [5],559.5-620 μg/mg cells
same,average intracellular concentration,Caco-2 cells; [6],493 μg/mg cells
same,intracellular:extracellular ratio,Caco-2 cells; [6],7
same,intracellular concentration,Caco-2 cells; [7],155.5 μg/mg cells
same,intracellular:extracellular ratio,Caco-2 cells; [7],3.57
same,tylvalosin in opposite (apical) chamber compared to the administration chamber,Caco-2 cells; [7],22.05%
same,total amount of tylvalosin transported across the cells,"Caco-2 cells; Caco-2, after 4 h (discussion)",about 20%
same,average intracellular concentration,"[1]; 10 μg/mL, 15 min",89.8 μg/mg cells
same,intracellular concentration,"[1]; 10 μg/mL, 60 min",122.9 μg/mg cells
same,intracellular:extracellular ratio,[1]; 60 min,19 fold
same,spread of the virus to neighbouring cells,PRRSV,prevented spread
same,virus positive cells,PRRSV; harvested 28 hours post infection,1%
